# Reference: ChEMBL document CHEMBL4138259, “Discovery of JTZ-951: A HIF Prolyl Hydroxylase Inhibitor for the Treatment of Renal Anemia” (ACS Med Chem Lett, 2017)
# The source made the active and inactive calls. No cut-off for these calls is given here.
# Key:
# [1] = test system: Mus musculus; assay: Upregulation of plasma EPO level in Balb/c mouse at 10 mg/kg, po administered as single dose measured after 8 hrs by ELISA; type: functional
# [2] = in vitro; conditions: human, Caco-2
# [3] = test system: Rattus norvegicus; assay: Upregulation of plasma EPO level in CD(SD) rat at 10 mg/kg, po administered as single dose measured after 8 hrs by RIA; type: functional
# [4] = test system: Rattus norvegicus; assay: Toxicity in CD(SD) rat assessed as induction of anorexia at 100 mg/kg, po administered as single dose; type: organism-based; conditions: in vivo
# [5] = test system: Rattus norvegicus; assay: Antianemic activity in CD(SD) rat assessed as increase in hemoglobin levels at 3 mg/kg, po administered once daily for 28 days; type: functional, organism-based
# [6] = test system: Rattus norvegicus; assay: Antianemic activity in CD(SD) rat assessed as increase in hemoglobin levels at 10 mg/kg, po administered once daily for 28 days; type: functional, organism-based
# [7] = molecular target: Egl nine homolog 1 (Homo sapiens, UniProt Q9GZT9); assay: Inhibition of PHD2 in human Hep3B cells assessed as increase in EPO release after 24 hrs by ELISA; type: cell-based
# [8] = test system: Rattus norvegicus; assay: Antianemic activity in po dosed CD(SD) rat assessed as increase in hemoglobin levels administered once daily for 28 days; type: functional, organism-based
# [9] = molecular target: Cytochrome P450 3A4 (Homo sapiens, UniProt P08684); assay: Inhibition of CYP3A4 in human liver microsomes using midozolam as substrate by LC-MS/MS analysis; type: ADME
# [10] = molecular target: Cytochrome P450 3A5 (Homo sapiens, UniProt P20815); assay: Inhibition of CYP3A5 in human liver microsomes using midazolam as substrate by LC-MS/MS analysis; type: ADME
# [11] = molecular target: Cytochrome P450 2C9 (Homo sapiens, UniProt P11712); assay: Inhibition of CYP2C9 in human liver microsomes by LC-MS/MS analysis; type: ADME
# [12] = molecular target: Cytochrome P450 2D6 (Homo sapiens, UniProt P10635); assay: Inhibition of CYP2D6 in human liver microsomes by LC-MS/MS analysis; type: ADME
# [13] = molecular target: T1, Cytochrome P450 1A2 (Homo sapiens, UniProt P05177); assay: Inhibition of CYP1A2 in human liver microsomes by LC-MS/MS analysis; type: ADME
# T1 sequence (P05177 whole entry): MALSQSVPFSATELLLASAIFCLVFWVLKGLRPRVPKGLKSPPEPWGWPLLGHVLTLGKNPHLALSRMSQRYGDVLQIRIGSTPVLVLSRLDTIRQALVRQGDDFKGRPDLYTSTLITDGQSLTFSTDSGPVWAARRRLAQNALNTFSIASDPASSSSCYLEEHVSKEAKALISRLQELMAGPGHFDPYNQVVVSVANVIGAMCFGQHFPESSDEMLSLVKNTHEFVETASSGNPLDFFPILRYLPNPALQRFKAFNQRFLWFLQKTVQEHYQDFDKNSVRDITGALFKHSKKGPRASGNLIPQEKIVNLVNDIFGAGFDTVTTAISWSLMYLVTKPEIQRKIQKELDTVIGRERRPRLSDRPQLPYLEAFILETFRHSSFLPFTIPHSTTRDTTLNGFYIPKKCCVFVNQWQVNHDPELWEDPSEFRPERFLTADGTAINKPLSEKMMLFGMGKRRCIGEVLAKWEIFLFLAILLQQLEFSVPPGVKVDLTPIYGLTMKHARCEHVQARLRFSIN
# [14] = molecular target: T2, Cytochrome P450 2A6 (Homo sapiens, UniProt P11509); assay: Inhibition of CYP2A6 in human liver microsomes by LC-MS/MS analysis; type: ADME
# T2 sequence (P11509 whole entry): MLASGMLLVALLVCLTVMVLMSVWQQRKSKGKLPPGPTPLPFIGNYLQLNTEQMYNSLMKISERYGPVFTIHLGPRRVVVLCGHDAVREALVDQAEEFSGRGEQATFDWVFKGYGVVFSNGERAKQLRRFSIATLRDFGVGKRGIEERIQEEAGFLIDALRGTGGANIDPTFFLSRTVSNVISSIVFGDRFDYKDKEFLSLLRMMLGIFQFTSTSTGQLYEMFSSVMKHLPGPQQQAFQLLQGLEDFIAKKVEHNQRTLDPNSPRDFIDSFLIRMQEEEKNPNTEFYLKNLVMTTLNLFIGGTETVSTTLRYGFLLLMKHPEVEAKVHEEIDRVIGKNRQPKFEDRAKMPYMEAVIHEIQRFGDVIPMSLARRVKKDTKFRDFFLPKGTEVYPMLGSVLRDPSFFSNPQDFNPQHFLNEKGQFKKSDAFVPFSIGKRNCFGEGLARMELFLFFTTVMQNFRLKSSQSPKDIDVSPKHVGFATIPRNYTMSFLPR
# [15] = molecular target: Cytochrome P450 2C19 (Homo sapiens, UniProt P33261); assay: Inhibition of CYP2C19 in human liver microsomes by LC-MS/MS analysis; type: ADME
# [16] = molecular target: T3, Cytochrome P450 2C8 (Homo sapiens, UniProt P10632); assay: Inhibition of CYP2C8 in human liver microsomes by LC-MS/MS analysis; type: ADME
# T3 sequence (P10632 whole entry): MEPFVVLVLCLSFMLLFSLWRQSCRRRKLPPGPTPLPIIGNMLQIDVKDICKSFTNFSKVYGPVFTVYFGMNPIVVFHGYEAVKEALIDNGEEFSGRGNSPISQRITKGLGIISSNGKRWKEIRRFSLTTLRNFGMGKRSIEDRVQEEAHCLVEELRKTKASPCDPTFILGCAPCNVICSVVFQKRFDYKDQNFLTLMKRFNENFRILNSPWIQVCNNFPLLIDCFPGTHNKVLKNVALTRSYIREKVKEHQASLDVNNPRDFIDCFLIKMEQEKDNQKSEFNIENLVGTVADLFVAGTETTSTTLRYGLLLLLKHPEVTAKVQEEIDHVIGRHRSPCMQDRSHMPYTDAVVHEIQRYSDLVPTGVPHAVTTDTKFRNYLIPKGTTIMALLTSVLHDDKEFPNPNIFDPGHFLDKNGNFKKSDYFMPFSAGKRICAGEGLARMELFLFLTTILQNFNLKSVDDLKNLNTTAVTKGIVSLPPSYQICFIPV
# [17] = molecular target: T4, Cytochrome P450 2B6 (Homo sapiens, UniProt P20813); assay: Inhibition of CYP2B6 in human liver microsomes by LC-MS/MS analysis; type: ADME
# T4 sequence (P20813 whole entry): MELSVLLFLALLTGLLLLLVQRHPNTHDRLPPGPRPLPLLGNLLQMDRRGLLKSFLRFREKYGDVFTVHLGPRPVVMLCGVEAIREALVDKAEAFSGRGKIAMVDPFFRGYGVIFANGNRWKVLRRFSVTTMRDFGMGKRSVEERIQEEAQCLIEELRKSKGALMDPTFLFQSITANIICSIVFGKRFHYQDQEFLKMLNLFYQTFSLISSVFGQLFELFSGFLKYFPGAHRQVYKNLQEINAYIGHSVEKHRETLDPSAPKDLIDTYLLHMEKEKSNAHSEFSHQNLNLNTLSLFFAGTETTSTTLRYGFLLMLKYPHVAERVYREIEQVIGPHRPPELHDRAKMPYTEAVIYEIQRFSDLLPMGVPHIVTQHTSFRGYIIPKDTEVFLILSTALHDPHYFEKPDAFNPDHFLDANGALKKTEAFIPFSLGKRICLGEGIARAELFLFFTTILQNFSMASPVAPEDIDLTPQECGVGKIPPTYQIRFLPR
# [18] = molecular target: Voltage-gated inwardly rectifying potassium channel KCNH2 (Homo sapiens, UniProt Q12809); assay: Inhibition of human ERG expressed in HEK293 cells at holding potential of -80 mV by whole cell patch clamp method; type: cell-based
# [19] = Half life in CD(SD) rat at 0.3 mg/kg, iv; type: ADME, organism-based; conditions: in vivo
# [20] = Total clearance in CD(SD) rat at 0.3 mg/kg, iv; type: ADME, organism-based; conditions: in vivo
# [21] = Volume of distribution at steady state in CD(SD) rat at 0.3 mg/kg, iv; type: ADME, organism-based; conditions: in vivo, read-out: Vdss
# [22] = MRT in CD(SD) rat at 0.3 mg/kg, iv; type: ADME, organism-based; conditions: in vivo
# [23] = Tmax in CD(SD) rat at 1 mg/kg, po; type: ADME, organism-based; conditions: in vivo
# [24] = Cmax in CD(SD) rat at 1 mg/kg, po; type: ADME, organism-based; parameters: dose 1 mg/kg, route oral; conditions: in vivo
# [25] = Oral bioavailability in CD(SD) rat at 1 mg/kg; type: ADME, organism-based; conditions: in vivo
# [26] = Solubility of the compound in FaSSIF after 4 hrs by LC-MS analysis; type: physicochemical
# [27] = Solubility of the compound in FeSSIF after 4 hrs by LC-MS analysis; type: physicochemical
# [28] = Metabolic stability in human pooled liver microsomes assessed as compound remaining at 10 uM after 120 mins in presence of NADPH by Radio-HPLC analysis; type: ADME, microsome; conditions: read-out: Stability
# [29] = Metabolic stability in Sprague-Dawley rat liver microsomes assessed as compound remaining at 10 uM after 120 mins in presence of NADPH by Radio-HPLC analysis; type: ADME, microsome; conditions: read-out: Stability
# [30] = Metabolic stability in Beagle dog liver microsomes assessed as compound remaining at 10 uM after 120 mins in presence of NADPH by Radio-HPLC analysis; type: ADME, Canis lupus familiaris, microsome; conditions: read-out: Stability
# [31] = Metabolic stability in cynomolgus monkey liver microsomes assessed as compound remaining at 10 uM after 120 mins in presence of NADPH by Radio-HPLC analysis; type: ADME, Macaca fascicularis, microsome; conditions: read-out: Stability
# Chain of Voltage-gated inwardly rectifying potassium channel KCNH2 (Q12809 whole entry): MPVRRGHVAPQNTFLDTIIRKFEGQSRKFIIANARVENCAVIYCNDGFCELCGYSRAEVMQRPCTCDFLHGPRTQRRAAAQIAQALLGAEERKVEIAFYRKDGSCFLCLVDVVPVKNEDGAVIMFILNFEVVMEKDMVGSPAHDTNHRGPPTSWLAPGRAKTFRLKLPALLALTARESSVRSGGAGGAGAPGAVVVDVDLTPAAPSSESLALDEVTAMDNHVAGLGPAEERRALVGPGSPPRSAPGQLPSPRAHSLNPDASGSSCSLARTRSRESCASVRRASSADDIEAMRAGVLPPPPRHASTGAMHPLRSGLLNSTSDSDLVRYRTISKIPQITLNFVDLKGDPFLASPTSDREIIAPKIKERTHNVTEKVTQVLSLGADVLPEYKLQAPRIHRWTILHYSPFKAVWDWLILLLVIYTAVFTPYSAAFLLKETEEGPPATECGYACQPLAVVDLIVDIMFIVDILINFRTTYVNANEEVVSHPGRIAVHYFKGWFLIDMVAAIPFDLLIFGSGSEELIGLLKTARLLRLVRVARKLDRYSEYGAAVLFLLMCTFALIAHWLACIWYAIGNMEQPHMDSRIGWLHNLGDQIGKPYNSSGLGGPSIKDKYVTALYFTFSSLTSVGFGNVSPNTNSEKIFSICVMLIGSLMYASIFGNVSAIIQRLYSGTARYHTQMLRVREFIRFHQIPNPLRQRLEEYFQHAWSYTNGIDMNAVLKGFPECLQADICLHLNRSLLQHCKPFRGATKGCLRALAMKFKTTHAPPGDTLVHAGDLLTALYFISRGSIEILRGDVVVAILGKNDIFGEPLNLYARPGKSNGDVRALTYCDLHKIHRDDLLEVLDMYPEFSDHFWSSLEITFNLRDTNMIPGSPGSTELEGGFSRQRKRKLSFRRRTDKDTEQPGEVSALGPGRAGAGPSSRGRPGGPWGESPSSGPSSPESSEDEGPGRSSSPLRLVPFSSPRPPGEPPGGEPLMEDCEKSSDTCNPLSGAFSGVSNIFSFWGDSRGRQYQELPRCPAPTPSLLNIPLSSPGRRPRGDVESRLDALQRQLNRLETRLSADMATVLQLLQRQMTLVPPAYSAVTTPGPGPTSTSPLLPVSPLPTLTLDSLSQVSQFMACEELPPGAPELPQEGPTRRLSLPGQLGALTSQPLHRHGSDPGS
# Chain of Cytochrome P450 2C19 (P33261 whole entry): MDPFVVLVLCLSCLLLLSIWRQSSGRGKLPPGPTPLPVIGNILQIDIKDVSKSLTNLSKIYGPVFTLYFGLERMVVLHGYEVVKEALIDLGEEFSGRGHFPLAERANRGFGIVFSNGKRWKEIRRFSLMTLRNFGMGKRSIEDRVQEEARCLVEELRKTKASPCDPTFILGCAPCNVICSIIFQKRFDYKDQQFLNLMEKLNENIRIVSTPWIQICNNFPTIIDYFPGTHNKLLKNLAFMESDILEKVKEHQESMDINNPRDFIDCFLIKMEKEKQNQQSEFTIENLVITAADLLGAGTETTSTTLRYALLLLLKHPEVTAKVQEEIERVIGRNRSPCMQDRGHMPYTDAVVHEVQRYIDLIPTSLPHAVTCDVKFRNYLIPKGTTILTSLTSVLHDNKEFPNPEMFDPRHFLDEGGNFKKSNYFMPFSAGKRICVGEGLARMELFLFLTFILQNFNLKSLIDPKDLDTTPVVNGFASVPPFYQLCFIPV
# Chain of Cytochrome P450 3A5 (P20815 whole entry): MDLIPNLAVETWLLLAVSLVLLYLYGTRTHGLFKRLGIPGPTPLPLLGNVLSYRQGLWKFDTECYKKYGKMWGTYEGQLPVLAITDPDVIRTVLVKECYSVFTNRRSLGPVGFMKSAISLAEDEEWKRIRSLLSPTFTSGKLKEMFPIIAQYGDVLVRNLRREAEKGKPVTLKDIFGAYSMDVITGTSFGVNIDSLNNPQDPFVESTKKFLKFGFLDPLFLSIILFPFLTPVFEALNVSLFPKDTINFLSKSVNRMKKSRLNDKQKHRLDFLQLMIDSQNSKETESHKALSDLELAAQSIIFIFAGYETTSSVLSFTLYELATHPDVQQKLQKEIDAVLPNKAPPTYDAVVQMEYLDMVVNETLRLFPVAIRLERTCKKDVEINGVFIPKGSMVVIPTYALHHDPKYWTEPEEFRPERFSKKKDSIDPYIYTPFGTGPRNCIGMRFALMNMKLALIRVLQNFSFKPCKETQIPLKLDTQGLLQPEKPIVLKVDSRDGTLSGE
# Chain of Egl nine homolog 1 (Q9GZT9 whole entry): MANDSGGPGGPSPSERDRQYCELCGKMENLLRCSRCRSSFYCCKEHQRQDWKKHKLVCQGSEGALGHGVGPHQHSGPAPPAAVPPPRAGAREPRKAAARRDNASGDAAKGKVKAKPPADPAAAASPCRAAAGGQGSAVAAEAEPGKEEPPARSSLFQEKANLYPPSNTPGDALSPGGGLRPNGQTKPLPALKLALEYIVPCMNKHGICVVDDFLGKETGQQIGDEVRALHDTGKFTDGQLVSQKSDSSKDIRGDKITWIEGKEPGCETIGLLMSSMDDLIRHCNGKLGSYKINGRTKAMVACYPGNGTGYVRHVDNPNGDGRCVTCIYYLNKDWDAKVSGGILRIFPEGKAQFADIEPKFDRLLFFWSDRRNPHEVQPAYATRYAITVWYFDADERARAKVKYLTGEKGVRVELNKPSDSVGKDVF
# Chain of Cytochrome P450 2C9 (P11712 whole entry): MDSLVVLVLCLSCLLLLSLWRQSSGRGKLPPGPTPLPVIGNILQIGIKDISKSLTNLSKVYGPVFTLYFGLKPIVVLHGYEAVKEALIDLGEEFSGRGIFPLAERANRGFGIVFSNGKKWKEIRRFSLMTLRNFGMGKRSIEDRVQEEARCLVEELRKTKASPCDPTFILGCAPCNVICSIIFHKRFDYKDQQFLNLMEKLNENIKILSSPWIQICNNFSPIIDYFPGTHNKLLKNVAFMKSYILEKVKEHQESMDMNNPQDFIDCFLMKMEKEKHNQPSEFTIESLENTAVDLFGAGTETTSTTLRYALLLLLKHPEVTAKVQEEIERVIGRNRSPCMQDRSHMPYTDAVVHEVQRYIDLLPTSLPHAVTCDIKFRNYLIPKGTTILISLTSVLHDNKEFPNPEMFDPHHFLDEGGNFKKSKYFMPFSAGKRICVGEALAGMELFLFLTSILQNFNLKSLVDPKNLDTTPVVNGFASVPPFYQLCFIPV
# Chain of Cytochrome P450 3A4 (P08684 whole entry): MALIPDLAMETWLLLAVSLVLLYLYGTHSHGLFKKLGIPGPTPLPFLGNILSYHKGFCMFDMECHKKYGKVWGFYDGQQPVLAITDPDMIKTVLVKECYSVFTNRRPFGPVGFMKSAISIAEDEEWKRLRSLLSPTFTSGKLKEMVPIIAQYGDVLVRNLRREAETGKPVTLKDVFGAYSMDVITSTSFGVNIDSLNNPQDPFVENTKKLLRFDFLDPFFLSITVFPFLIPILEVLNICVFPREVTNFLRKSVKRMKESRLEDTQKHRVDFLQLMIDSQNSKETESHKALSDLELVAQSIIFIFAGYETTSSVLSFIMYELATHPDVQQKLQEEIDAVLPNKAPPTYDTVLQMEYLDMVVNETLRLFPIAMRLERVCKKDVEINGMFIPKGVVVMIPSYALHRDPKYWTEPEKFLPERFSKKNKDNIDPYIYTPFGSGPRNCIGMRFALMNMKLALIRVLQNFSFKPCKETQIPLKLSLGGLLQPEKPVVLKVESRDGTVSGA
# Chain of Cytochrome P450 2D6 (P10635 whole entry): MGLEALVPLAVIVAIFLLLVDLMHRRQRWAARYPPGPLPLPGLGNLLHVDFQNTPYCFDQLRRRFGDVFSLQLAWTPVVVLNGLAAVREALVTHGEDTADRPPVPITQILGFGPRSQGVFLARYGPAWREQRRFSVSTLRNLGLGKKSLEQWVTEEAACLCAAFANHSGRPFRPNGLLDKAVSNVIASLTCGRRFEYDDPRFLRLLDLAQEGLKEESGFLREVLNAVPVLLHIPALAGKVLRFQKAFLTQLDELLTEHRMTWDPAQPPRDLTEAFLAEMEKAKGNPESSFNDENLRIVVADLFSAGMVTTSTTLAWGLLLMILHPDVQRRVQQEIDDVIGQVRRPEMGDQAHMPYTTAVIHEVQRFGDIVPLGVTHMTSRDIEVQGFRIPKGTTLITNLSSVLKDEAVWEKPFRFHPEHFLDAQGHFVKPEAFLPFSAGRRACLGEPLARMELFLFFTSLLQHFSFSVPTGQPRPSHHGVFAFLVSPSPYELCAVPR
compound,measurement,setting,value
CCc1c(O)c(C(=O)NCC(=O)O)c2ncnn2c1CC.Cl,Activity,[1],1100 pg/mL
same,"Papp A→B at 2 h, 25 µM",[2],9.3 ×10⁻⁶ cm/s
Cl.O=C(O)CNC(=O)c1c(O)ccn2ncnc12,"Papp A→B at 2 h, 25 µM",[2],0.86 to 0.9 ×10⁻⁶ cm/s
Cl.O=C(O)CNC(=O)c1c(O)ccn2cnnc12,"Papp A→B at 2 h, 25 µM",[2],< 0.4 ×10⁻⁶ cm/s
O=C(O)CNC(=O)c1c(O)ccn2ccnc12,"Papp A→B at 2 h, 25 µM",[2],0.8 ×10⁻⁶ cm/s
CCCCc1cc(O)c(C(=O)NCC(=O)O)c2ncnn12.Cl,Activity,[1],3700 pg/mL
same,Activity,[3],2200 pg/mL
same,Activity,[4],Non-Toxic
same,Activity,[5],inactive
same,Activity,[6],Active
same,"Papp A→B at 2 h, 25 µM",[2],9.9 ×10⁻⁶ cm/s
O=C(O)CNC(=O)c1nc(Cl)c2ccccc2c1O,"Papp A→B at 2 h, 25 µM",[2],63 ×10⁻⁶ cm/s
Cl.O=C(O)CNC(=O)c1c(O)cc(CCc2ccccc2)n2ncnc12,EC50,[7],5.7 µM
same,Activity,[1],6500 pg/mL
same,Activity,[3],17000 pg/mL
same,Activity,[4],Non-Toxic
same,Activity,[8],Dose-dependent effect
same,IC50,[9],> 100 µM
same,IC50,[10],> 100 µM
same,IC50,[11],> 100 µM
same,IC50,[12],> 100 µM
same,IC50,[13],> 100 µM
same,IC50,[14],> 100 µM
same,IC50,[15],> 100 µM
same,IC50,[16],> 100 µM
same,IC50,[17],> 100 µM
same,IC50,[18],> 100 µM
same,half-life,[19],1.4 h
same,clearance,[20],2.7 mL/min/kg
same,Vd,[21],0.28 L/kg
same,MRT,[22],1.8 h
same,Tmax,[23],0.33 h
same,Cmax,[24],2700 ng/mL
same,bioavailability,[25],75%
same,solubility at 4 h,[26],> 2900 µM
same,solubility at 4 h,[27],1300 µM
same,"remaining at 2 h, 10 µM",[28],94%
same,"remaining at 2 h, 10 µM",[29],98%
same,"remaining at 2 h, 10 µM",[30],100%
same,"remaining at 2 h, 10 µM",[31],94%
same,"Papp A→B at 2 h, 25 µM",[2],13 ×10⁻⁶ cm/s
Cl.O=C(O)CNC(=O)c1c(O)cc(CCc2ccc(F)cc2)n2ncnc12,Activity,[1],1000 pg/mL
same,"Papp A→B at 2 h, 25 µM",[2],12 ×10⁻⁶ cm/s
CCCCCc1cc(O)c(C(=O)NCC(=O)O)c2ncnn12.Cl,Activity,[1],2300 pg/mL
same,Activity,[3],11000 pg/mL
same,Activity,[4],Toxic
same,"Papp A→B at 2 h, 25 µM",[2],20 ×10⁻⁶ cm/s
CCCCCc1cn2ncnc2c(C(=O)NCC(=O)O)c1O.Cl,Activity,[1],<330 pg/mL
same,"Papp A→B at 2 h, 25 µM",[2],15 ×10⁻⁶ cm/s
